In PubChem BioAssay AID328 (DTP/NCI, 2004) one finds T/C data, which are given here for 15 compounds.

The assay relates to BDF1 mice, P388 leukemia ip, median survival T/C. The experiment in a line: NCI In Vivo Anticancer Drug Screen. Data for tumor model P388 Leukemia (intraperitoneal) in B6D2F1 (BDF1) mice. The settings on record: endpoint: median survival time, higher = longer survival. Summed up:
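Vehicle-dosed animals serve as the reference; survival of compound-dosed, tumour-implanted mice is divided by it.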

The mark [1] stands for this setting: dose: 100.0 mg/kg/injection, schedule: Q04DX003 (ip), vehicle: saline.
Setting [2] is: dose: 200.0 mg/kg/injection, schedule: Q04DX003 (ip), vehicle: saline.
The mark [3] stands for this setting: dose: 400.0 mg/kg/injection, schedule: Q04DX003 (ip), vehicle: saline.
The mark [4] stands for this setting: dose: 25.0 mg/kg/injection, schedule: Q04DX003 (ip), vehicle: saline with Tween-80.
The mark [5] stands for this setting: dose: 50.0 mg/kg/injection, schedule: Q04DX003 (ip), vehicle: saline with Tween-80.
[6] abbreviates: dose: 100.0 mg/kg/injection, schedule: Q01DX009 (ip), vehicle: saline.
The mark [7] stands for this setting: dose: 200.0 mg/kg/injection, schedule: Q01DX009 (ip), vehicle: saline.
The mark [8] stands for this setting: dose: 100.0 mg/kg/injection, schedule: Q01DX009 (ip), vehicle: saline with Tween-80.
The mark [9] stands for this setting: dose: 100.0 mg/kg/injection, schedule: Q04DX003 (ip), vehicle: Klucel (hydroxypropylcellulose) (HPC).
Where [10] appears, read: dose: 200.0 mg/kg/injection, schedule: Q04DX003 (ip), vehicle: Klucel (hydroxypropylcellulose) (HPC).
[11] abbreviates: dose: 400.0 mg/kg/injection, schedule: Q04DX003 (ip), vehicle: Klucel (hydroxypropylcellulose) (HPC).
[12] abbreviates: dose: 50.0 mg/kg/injection, schedule: Q01DX009 (ip), vehicle: saline with Tween-80.
[13] abbreviates: dose: 6.25 mg/kg/injection, schedule: Q01DX009 (ip), vehicle: saline with Tween-80.

Values joined by “and” are separate entries in the source; they are usually repeats but may differ in a detail not shown here. Identical values can stand only once. Toxic doses and inconclusive results are not listed.

For `C/C(=N\N=C(N)N)c1ccc(NC(=O)Nc2ccc(/C(C)=N/N=C(N)N)cc2)cc1`, the T/C is 115 % of control (dose: 1.5 mg/kg/injection, schedule: Q04DX003 (ip), vehicle: saline); 150 % of control (dose: 5.4 mg/kg/injection, schedule: Q04DX003 (ip), vehicle: saline); 163 % of control (dose: 44.0 mg/kg/injection, schedule: Q04DX003 (ip), vehicle: saline); 118 % of control (dose: 66.0 mg/kg/injection, schedule: Q04DX003 (ip), vehicle: saline); 154 % of control under setting [1]; 179 % of control under setting [2]. Moreover, the T/C reads like this: (dose: 264.0 mg/kg/injection, schedule: Q04DX003 (ip), vehicle: saline) 180 % of control and 222 % of control; under setting [3], 236 % of control and 241 % of control and 190 % of control.

Consider `Cc1cnc(=S)n(-c2ccccc2)c1`, for which the T/C (dose: 12.5 mg/kg/injection, schedule: Q04DX003 (ip), vehicle: saline with Tween-80) is 95 % of control; the T/C under setting [4] is 104 % of control; the T/C under setting [5] was 98 % of control.

As for `O=C(O)CCCl`, the T/C by setting is: (dose: 50.0 mg/kg/injection, schedule: Q04DX003 (ip), vehicle: saline) 104 % of control; under setting [6], 91 % of control; under setting [1], 104 % of control; under setting [7], 95 % of control; under setting [2], 100 % of control.

As to `CC(=O)NC1C(S[As](C)C)OC(COC(C)=O)C(OC(C)=O)C1OC(C)=O` (centres undefined), the T/C under setting [8] was 124 % of control.

Consider `O=C1C=CC(=O)N1c1ccc([N+](=O)[O-])cc1`, for which the T/C was 90 % of control (dose: 5.25 mg/kg/injection, schedule: Q01DX009 (ip), vehicle: Klucel (hydroxypropylcellulose) (HPC)); 116 % of control (dose: 7.5 mg/kg/injection, schedule: Q04DX003 (ip), vehicle: Klucel (hydroxypropylcellulose) (HPC)); 90 % of control (dose: 10.5 mg/kg/injection, schedule: Q01DX009 (ip), vehicle: Klucel (hydroxypropylcellulose) (HPC)); 95 % of control (dose: 15.0 mg/kg/injection, schedule: Q04DX003 (ip), vehicle: Klucel (hydroxypropylcellulose) (HPC)).

On to `Cc1ccccc1NC(=O)Nc1ccccc1C`, for which the T/C runs as follows: (dose: 0.37 mg/kg/injection, schedule: Q01DX009 (ip), vehicle: Klucel (hydroxypropylcellulose) (HPC)) 88 % of control; (dose: 0.75 mg/kg/injection, schedule: Q01DX009 (ip), vehicle: Klucel (hydroxypropylcellulose) (HPC)) 100 % of control; (dose: 1.5 mg/kg/injection, schedule: Q01DX009 (ip), vehicle: Klucel (hydroxypropylcellulose) (HPC)) 107 % of control; under setting [9], 104 % of control; under setting [10], 95 % of control; under setting [11], 109 % of control.

For the compound `Fc1nc2nc(C(F)(F)F)[nH]c2nc1F`, the T/C is, setting by setting: (dose: 10.0 mg/kg/injection, schedule: Q01DX009 (ip), vehicle: saline with Tween-80) 104 % of control; (dose: 20.0 mg/kg/injection, schedule: Q01DX009 (ip), vehicle: saline with Tween-80) 121 % of control; under setting [4], 105 % of control; (dose: 40.0 mg/kg/injection, schedule: Q01DX009 (ip), vehicle: saline with Tween-80) 120 % of control; under setting [5], 99 % of control; (dose: 80.0 mg/kg/injection, schedule: Q01DX009 (ip), vehicle: saline with Tween-80) 112 % of control. For the same compound, the T/C is 90 % of control and 105 % of control (dose: 100.0 mg/kg/injection, schedule: Q04DX003 (ip), vehicle: saline with Tween-80); 112 % of control (dose: 160.0 mg/kg/injection, schedule: Q01DX009 (ip), vehicle: saline with Tween-80).

Turning to `CN(C)c1ccc(Sc2ccc3nc(N)nc(N)c3c2)cc1`, the T/C by setting is: under setting [12], 112 % of control; under setting [8], 103 % of control; (dose: 200.0 mg/kg/injection, schedule: Q01DX009 (ip), vehicle: saline with Tween-80) 174 % of control.

As for `O=c1c2ccccc2nc(-c2ccccc2)n1-c1nnc(C(F)(F)F)s1`, the T/C is, setting by setting: (dose: 3.12 mg/kg/injection, schedule: Q01DX009 (ip), vehicle: saline with Tween-80) 101 % of control; under setting [13], 105 % of control; (dose: 12.5 mg/kg/injection, schedule: Q01DX009 (ip), vehicle: saline with Tween-80) 91 % of control.

In the case of `CCC1(O)CC2CN(CCc3c([nH]c4ccccc34)C(C(=O)OC)(c3cc4c(cc3OC)N(C)C3C(O)(C(=O)NCCSSCCNC(=O)C5(O)C(O)C6(CC)C=CCN7CCC8(c9cc(C%10(C(=O)OC)CC%11CN(CCc%12c%10[nH]c%10ccccc%12%10)CC(O)(CC)C%11)c(OC)cc9N(C)C58)C76)C(O)C5(CC)C=CCN6CCC43C65)C2)C1` (centres undefined), the T/C (dose: 250.0 micrograms/kg/injection, schedule: Q04DX003 (ip), vehicle: saline) was 179 % of control; the T/C (dose: 432.0 micrograms/kg/injection, schedule: Q04DX003 (ip), vehicle: saline) was 162 % of control; the T/C (dose: 500.0 micrograms/kg/injection, schedule: Q04DX003 (ip), vehicle: saline) was 185 % of control; the T/C (dose: 648.0 micrograms/kg/injection, schedule: Q04DX003 (ip), vehicle: saline) is 268 % of control; the T/C (dose: 720.0 micrograms/kg/injection, schedule: Q04DX003 (ip), vehicle: saline) was 164 % of control; the T/C (dose: 1000.0 micrograms/kg/injection, schedule: Q04DX003 (ip), vehicle: saline) was 224 % of control. Besides, the T/C runs as follows: (dose: 1080.0 micrograms/kg/injection, schedule: Q04DX003 (ip), vehicle: saline) 244 % of control; (dose: 1200.0 micrograms/kg/injection, schedule: Q04DX003 (ip), vehicle: saline) 171 % of control; (dose: 1800.0 micrograms/kg/injection, schedule: Q04DX003 (ip), vehicle: saline) 155 % of control; (dose: 2000.0 micrograms/kg/injection, schedule: Q04DX003 (ip), vehicle: saline) 221 % of control.

Take `C=CCN1CSC(=S)N(CC=C)C1`: the T/C is 100 % of control (dose: 25.0 mg/kg/injection, schedule: Q01DX009 (ip), vehicle: saline with Tween-80) and 87 % of control under setting [12].

With `CC1(C)C=C(C(Br)c2cccc(Cl)c2)C(=O)c2ccccc21` (centres undefined), the T/C is 105 % of control (dose: 100.0 mg/kg/injection, schedule: Q01DX009 (ip), vehicle: Klucel (hydroxypropylcellulose) (HPC)); 104 % of control under setting [9]; 120 % of control (dose: 200.0 mg/kg/injection, schedule: Q01DX009 (ip), vehicle: Klucel (hydroxypropylcellulose) (HPC)); 104 % of control under setting [10]; 100 % of control (dose: 400.0 mg/kg/injection, schedule: Q01DX009 (ip), vehicle: Klucel (hydroxypropylcellulose) (HPC)); 95 % of control under setting [11].

Consider `CC(CS(=O)(=O)O)N1CCOCC1` (centres undefined), for which the T/C under setting [6] is 91 % of control; the T/C under setting [1] is 104 % of control; the T/C under setting [7] is 104 % of control; the T/C under setting [2] was 100 % of control; the T/C under setting [3] is 95 % of control.

For the compound `c1ccc2c(c1)ccc1cc3cc(NCCCCNc4ccc5nc6c(ccc7ccccc76)cc5c4)ccc3nc12`, the T/C runs as follows: (dose: 1.56 mg/kg/injection, schedule: Q01DX009 (ip), vehicle: saline with Tween-80) 108 % of control; (dose: 3.13 mg/kg/injection, schedule: Q01DX009 (ip), vehicle: saline with Tween-80) 105 % of control; under setting [13], 108 % of control.

On to `O=C(C=C(C(F)(F)F)C(F)(F)F)c1ccc(F)cc1`, for which the T/C was 101 % of control (dose: 6.25 mg/kg/injection, schedule: Q01DX009 (ip), vehicle: Klucel (hydroxypropylcellulose) (HPC)); 100 % of control (dose: 6.25 mg/kg/injection, schedule: Q01DX009 (ip), vehicle: other); 105 % of control (dose: 12.5 mg/kg/injection, schedule: Q01DX009 (ip), vehicle: Klucel (hydroxypropylcellulose) (HPC)); 109 % of control (dose: 12.5 mg/kg/injection, schedule: Q01DX009 (ip), vehicle: other); 113 % of control (dose: 16.5 mg/kg/injection, schedule: Q01DX009 (ip), vehicle: other); 118 % of control (dose: 25.0 mg/kg/injection, schedule: Q01DX009 (ip), vehicle: Klucel (hydroxypropylcellulose) (HPC)). Under “dose: 25.0 mg/kg/injection, schedule: Q01DX009 (ip), vehicle: other”, the T/C was 118 % of control.
